Test results published in US8962627B2, “Oxime derivatives and their use as allosteric modulators of metabotropic glutamate receptors” (Prestwick Chemical, Inc., priority 2009, dated 2015).
pEC50: −log10 of the molar value.

Key:
mice [1] = experiment: Haloperidol-induced catalepsy model (bar test) in the mouse; type: in vivo; conditions: 30 mg/kg i.p. consecutively with haloperidol 1 mg/kg i.p.; compared with vehicle; FIG. 1
Experimental: In-Vivo Evaluation in the Haldoperidol-Induced Catalepsy Model in the Mouse
This method, which detects anti-Parkinsonian activity, follows that described by Pires et al. (J Med and Biol Res 38 1867-1872, 2005; Shiozaki et al., Psychopharmacology 147, 90-95, 1999)
Catalepsy was assessed using the bar test in mice submitted to acute intra-peritoneal administration of Haloperidol 1 mg/kg. Mice (male Rj: NMRI mice, weighing 25-30 g at the beginning of the experiment) placed in group of 5 in Plexiglas cages, were injected with Haloperidol (1 mg/kg i.p.). […] The catalepsy response of one mouse was measured as the time the animal maintained an imposed posture with both forelimbs placed on a horizontal 0.9 cm diameter wire bar suspended 4 cm above a platform. The end point of catalepsy was considered to occur when both forelimbs were removed from the bar, the mouse climbed onto the bar or if the animal moved its head in an exploratory manner. A cut-off time of 180 seconds was applied. The degree of catalepsy was scored 45 min after Haloperidol administration and continued at 45 minutes intervals for a total of 270 minutes. Between determinations, the animals were returned to their home cages. The compound of Example 63, administered i.p. consecutively with haloperidol, was evaluated at 30 mg/kg and compared with a vehicle control group. […]

[2] = molecular target: T1, human mGluR4 transiently over-expressed in HEK-293 cells (Homo sapiens, UniProt Q14833); experiment: Human mGluR4 positive allosteric modulator evaluation using Ca++ functional assay; type: cell-based; conditions: HEK-293 cells co-transfected with hmGluR4 and chimeric G protein; EC10 glutamate; intracellular calcium (Fluo4AM); read-out: mean EC50 of agonist/positive allosteric modulator activity on mGluR4
T1 construct: expressed in transfected cells; host or cells: HEK-293 cells, transient co-transfection by electroporation
T1 sequence (Q14833 33-912): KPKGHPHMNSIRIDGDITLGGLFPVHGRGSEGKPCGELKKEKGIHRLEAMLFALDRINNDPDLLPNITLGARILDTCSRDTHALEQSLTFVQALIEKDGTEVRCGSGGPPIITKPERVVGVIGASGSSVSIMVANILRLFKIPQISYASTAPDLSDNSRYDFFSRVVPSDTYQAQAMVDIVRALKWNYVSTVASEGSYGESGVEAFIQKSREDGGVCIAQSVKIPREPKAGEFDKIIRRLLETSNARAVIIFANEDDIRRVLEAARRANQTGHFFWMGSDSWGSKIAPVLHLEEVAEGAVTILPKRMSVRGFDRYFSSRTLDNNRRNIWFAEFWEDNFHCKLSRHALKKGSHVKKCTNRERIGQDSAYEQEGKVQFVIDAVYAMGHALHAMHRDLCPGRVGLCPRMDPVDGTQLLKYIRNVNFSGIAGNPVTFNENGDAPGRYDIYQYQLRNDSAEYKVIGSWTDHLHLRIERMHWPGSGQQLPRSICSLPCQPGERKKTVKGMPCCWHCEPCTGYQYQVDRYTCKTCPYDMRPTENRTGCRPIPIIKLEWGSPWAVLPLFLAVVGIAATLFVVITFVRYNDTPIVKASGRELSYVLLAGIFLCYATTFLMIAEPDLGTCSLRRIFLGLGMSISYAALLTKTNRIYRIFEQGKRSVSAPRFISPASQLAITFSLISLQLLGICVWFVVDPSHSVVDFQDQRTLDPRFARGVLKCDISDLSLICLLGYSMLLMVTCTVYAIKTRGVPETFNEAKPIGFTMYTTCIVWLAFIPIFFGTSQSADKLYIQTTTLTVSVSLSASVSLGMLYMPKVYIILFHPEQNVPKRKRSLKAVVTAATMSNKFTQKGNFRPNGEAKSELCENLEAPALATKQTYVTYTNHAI
How it was run: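 HEK-293 cells transiently co-transfected with hmGluR4 and a chimeric G protein, loaded with Fluo4AM; Ca2+ fluorescence read 485/525 nm. Compound alone read 60 s, then EC10 glutamate added and read 60 s more. EC50 fitted from 6–9 concentrations, duplicate, two independent runs.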

mice [3] = experiment: Marble burying test in the mouse; type: in vivo; conditions: p<0.001
Text: In-Vivo Evaluation in the Marble Burying Test in the Mouse
The method, which detects anxiolytic/tranquilizing activity, follows that described by Broekkamp at al. (Eur. J. Pharmacol., 126, 223-229, 1986). Mice exposed to novel object (marbles) will bury them in the sawdust floor covering. Anxiolytics decrease the number of marbles buried at non-sedative doses.
Mice were individually placed in transparent plastic cages (33×21×18 cm) with 5 cm of sawdust on the floor and 25 marbles grouped in the centre of the cage. The cage was covered with an inverted plastic cage. Each test cage, together with the marbles, was impregnated with mouse odor before-hand by leaving 10 mice in the cage for 15 minutes. These mice then played no further role in the experiment. The number of marbles covered by sawdust (⅔ or more) was counted at the end of a 30 minute test. 12 mice were studied per group. The test was performed blind (apart from positive control). The compound of Example 85 was evaluated at 2 doses (100 and 300 mg/kg), administered p.o. 30 minutes before the test, and compared with vehicle control groups. Clobazam (8 mg/kg i.p.), administered 30 minutes before the test, was used as reference substance and was compared with the vehicle control group. Data were analyzed by comparing treated groups with control group using unpaired Student's t tests.

Row | Structure (SMILES) | anticataleptic activity (mean time of latency spent on the bar) (mice [1]) | pEC50 [2] | decrease of the number of marbles covered by sawdust, as compared with vehicle controls (mice [3]; 100 mg/kg p.o. 30 minutes before the test) | decrease of the number of marbles covered by sawdust, as compared with vehicle controls (mice [3]; 300 mg/kg p.o. 30 minutes before the test) | melting point
1 | ON=c1cc(-c2cc3cccn3cn2)oc2ccccc12 [Example 63, 2-Pyrrolo[1,2-c]pyrimidin-3-yl-chromen-4-one oxime] | significant anticataleptic activity | > 6.00 |  |  | 
2 | Cl.ON=c1cc(-c2cc3cccn3cn2)oc2ccc(OCCN3CCOCC3)cc12 [Example 85, 6-(3-Morpholin-4-yl-ethoxy)-2-pyrrolo[1,2-c]pyrimidin-3-yl-chromen-4-one oxime hydrochloride] |  | > 6.00 | −70% | −83% | 
3 | Cl.ON=c1cc(-c2cc3sccc3cn2)oc2ccc(OCCN3CCC(F)(F)C3)cc12 [Example 133, 6-[2-(3,3-Difluoro-pyrrolidin-1-yl)-ethoxy]-2-thieno[3,2-c]pyridin-6-yl-chromen-4-one oxime, hydrochloride] |  | > 6.00 |  |  | 226 to 229 °C
4 | Cl.ON=c1cc(-c2cc3sccc3cn2)oc2ccc(OCCCc3ccncc3)cc12 [Example 134, 6-(3-Pyridin-4-yl-propoxy)-2-thieno[3,2-c]pyridin-6-yl-chromen-4-one oxime, hydrochloride] |  | > 6.00 |  |  | 236 to 238 °C
5 | Cl.ON=c1cc(-c2cc3sccc3cn2)oc2ccc(OCCCc3cccnc3)cc12 [Example 135, 6-(3-Pyridin-3-yl-propoxy)-2-thieno[3,2-c]pyridin-6-yl-chromen-4-one oxime, hydrochloride] |  | > 6.00 |  |  | 252 to 254 °C
6 | Cl.ON=c1cc(-c2cc3cccn3cn2)oc2ccc(OCCc3ccncc3)cc12 [Example 136, 6-(2-Pyridin-4-yl-ethoxy)-2-pyrrolo[1,2-c]pyrimidin-3-yl-chromen-4-one oxime, hydrochloride] |  | > 5.30 |  |  | > 270 °C (dec.)
7 | ON=c1cc(-c2cc3cccn3cn2)oc2ccc(OCCc3ccc(C(F)(F)F)cc3)cc12 [Example 137, 2-Pyrrolo[1,2-c]pyrimidin-3-yl-6-[2-(4-trifluoromethyl-phenyl)-ethoxy]-chromen-4-one, oxime] |  | > 6.00 |  |  | 214 to 215 °C
8 | ON=c1cc(-c2cc3cccn3cn2)oc2ccc(OCCc3cccc(F)c3)cc12 [Example 138, 6-[2-(3-Fluoro-phenyl)-ethoxy]-2-pyrrolo[1,2-c]pyrimidin-3-yl-chromen-4-one, oxime] |  | > 6.00 |  |  | 205 to 207 °C
9 | COc1cccc2oc(-c3cc4cccn4cn3)cc(=NO)c12 [Example 139, 5-Methoxy-2-pyrrolo[1,2-c]pyrimidin-3-yl-chromen-4-one oxime] |  | > 6.00 |  |  | 240 to 243 °C
10 | ON=c1cc(-c2cc3cccn3cn2)oc2ccc(OCCc3ccc(Cl)cc3)cc12 [Example 140, 6-[2-(4-Chloro-phenyl)-ethoxy]-2-pyrrolo[1,2-c]pyrimidin-3-yl-chromen-4-one oxime] |  | > 6.00 |  |  | 247 to 249 °C
11 | ON=c1cc(-c2cc3cccn3cn2)oc2ccc(OCCc3cccc(C(F)(F)F)c3)cc12 [Example 141, 2-Pyrrolo[1,2-c]pyrimidin-3-yl-6-[2-(3-trifluoromethyl-phenyl)-ethoxy]-chromen-4-one oxime] |  | > 6.00 |  |  | 217 to 218 °C
12 | Cl.ON=c1cc(-c2cc3cccn3cn2)oc2ccc(CNCc3ccc(F)cc3)cc12 [Example 144, 6-[(4-Fluoro-benzylamino)-methyl]-2-pyrrolo[1,2-c]pyrimidin-3-yl-chromen-4-one oxime hydrochloride] |  | > 5.30 |  |  | > 210 °C (dec.)
13 | ON=c1cc(-c2cc3cccn3cn2)oc2ccc(OCCc3ccccc3)cc12 [Example 146, 6-Phenethyloxy-2-pyrrolo[1,2-c]pyrimidin-3-yl-chromen-4-one oxime] |  | > 6.00 |  |  | 210 °C
14 | ON=c1cc(-c2cc3cccn3cn2)oc2ccc(OCCOc3ccncc3)cc12 [Example 147, 6-[2-(Pyridin-4-yloxy)-ethoxy]-2-pyrrolo[1,2-c]pyrimidin-3-yl-chromen-4-one oxime] |  | > 6.00 |  |  | 198 to 200 °C
15 | ON=c1cc(-c2cc3cccn3cn2)oc2ccc(OCCOc3cccnc3)cc12 [Example 148, 6-[2-(Pyridin-3-yloxy)-ethoxy]-2-pyrrolo[1,2-c]pyrimidin-3-yl-chromen-4-one oxime] |  | > 6.00 |  |  | 170 to 175 °C
16 | ON=c1cc(-c2cc3cccn3cn2)oc2ccc(OCCCOc3cccnc3)cc12 [Example 149, 6-[3-(Pyridin-3-yloxy)-propoxy]-2-pyrrolo[1,2-c]pyrimidin-3-yl-chromen-4-one oxime] |  | > 6.00 |  |  | 202 to 205 °C
17 | CN(C(=O)COc1ccc2oc(-c3cc4cccn4cn3)cc(=NO)c2c1)c1ccc(F)cc1 [Example 151, N-(4-Fluoro-phenyl)-2-{4-hydroxyimino-2-pyrrolo[1,2-c]pyrimidin-3-yl-4H-chromen-6-yloxy}-N-methyl-acetamide] |  | > 5.30 |  |  | 268 to 272 °C
18 | ON=c1cc(-c2cc3cccn3cn2)oc2cccc(C(F)(F)F)c12 [Example 153, 2-Pyrrolo[1,2-c]pyrimidin-3-yl-5-trifluoromethyl-chromen-4-one oxime] |  | > 5.30 |  |  | 255 to 257 °C
19 | Cl.ON=c1cc(-c2cc3cccn3cn2)oc2cccc(OCCN3CCOCC3)c12 [Example 156, 5-(2-Morpholin-4-yl-ethoxy)-2-pyrrolo[1,2-c]pyrimidin-3-yl-chromen-4-one oxime, hydrochloride] |  | > 6.00 |  |  | 200 to 205 °C
20 | Cl.ON=c1cc(-c2cc3ccsc3cn2)oc2ccc(OCCN3CCOCC3)cc12 [Example 158, 6-(2-Morpholin-4-yl-ethoxy)-2-thieno[2,3-c]pyridin-5-yl-chromen-4-one oxime, hydrochloride] |  | > 6.00 |  |  | 258 to 260 °C
21 | Cl.ON=c1cc(-c2cc3cccn3cn2)oc2ccc(OCCCc3ccncc3)cc12 [Example 159, 6-(3-Pyridin-4-yl-propoxy)-2-pyrrolo[1,2-c]pyrimidin-3-yl-chromen-4-one oxime, hydrochloride] |  | > 6.00 |  |  | 210 to 215 °C
22 | ON=c1cc(-c2cc3cccn3cn2)oc2ccc(OCCOc3ccccc3)cc12 [Example 160, 6-(2-Phenoxy-ethoxy)-2-pyrrolo[1,2-c]pyrimidin-3-yl-chromen-4-one oxime] |  | > 6.00 |  |  | 210 to 215 °C
